Measured values published in patent publication US10745382B2 (BRISTOL-MYERS SQUIBB COMPANY, priority 2015, dated 2020).

Target: T1, PD-1/PD-L1 (Homo sapiens, UniProt Q9NZQ7)
T1 construct: made in house; host or cells: HEK293T
Experiment: PD-1/PD-L1 Homogenous Time-Resolved Fluorescence (HTRF) binding assay
Details: PD-L1-His 10 nM, PD-1-Ig 20 nM; value given as range class; read-out: Range or IC50
Outline: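 Binding measured in dPBS with 0.1% BSA and 0.05% Tween-20, detected by HTRF with europium cryptate anti-Ig (1 nM final) and APC anti-His (20 nM final) added over the binding reaction. Counter-assays used human PD-1-Ig/PD-L2-His (20 and 5 nM) and CD80-His/PD-L1-Ig (100 and 10 nM).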

T1 sequence (Q9NZQ7 with tags, fused parts or gaps): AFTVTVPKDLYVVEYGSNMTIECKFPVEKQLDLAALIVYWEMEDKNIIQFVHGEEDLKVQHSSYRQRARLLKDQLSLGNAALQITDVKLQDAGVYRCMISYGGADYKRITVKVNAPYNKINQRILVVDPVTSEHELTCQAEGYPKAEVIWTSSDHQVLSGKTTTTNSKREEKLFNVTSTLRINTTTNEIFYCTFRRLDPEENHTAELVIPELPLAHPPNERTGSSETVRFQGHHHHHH

| SMILES | IC50 |
| --- | --- |
| CC(=O)NC1CCN(CCCOc2cccc(-c3cccc(COc4cc(OCc5cncc(C#N)c5)c(CO)cc4Cl)c3C)c2Cl)C1 (stereo not drawn) [Example 2021, N-(1-(3-((2-chloro-3′-((2-chloro-5-((5-cyanopyridin-3-yl)methoxy)-4-(hydroxymethyl)phenoxy)methyl)-2′-methyl-[1,1′-biphenyl]-3-yl)oxy)propyl)pyrrolidin-3-yl)acetamide] | 0.21 to 10 nM |
| CC(=O)N[C@@H]1CCN(CCCOc2cccc(-c3cccc(COc4cc(OCc5cncc(C#N)c5)c(CN[C@](C)(CO)C(=O)O)cc4Cl)c3C)c2Cl)C1 [Example 2022, (R)-2-((4-((3′-(3-((R)-3-acetamidopyrrolidin-1-yl)propoxy)-2′-chloro-2-methyl-[1,1′-biphenyl]-3-yl)methoxy)-5-chloro-2-((5-cyanopyridin-3-yl)methoxy)benzyl)amino)-3-hydroxy-2-methylpropanoic Acid] | 0.21 to 10 nM |
| Cc1c(COc2cc(OCc3cncc(C#N)c3)c(CN[C@](C)(CO)C(=O)O)cc2Cl)cccc1-c1cccc(OCCCN[C@](C)(CO)C(=O)O)c1Cl [Example 2023, (R)-2-((3-((3′-((4-((((R)-2-carboxy-1-hydroxypropan-2-yl)amino)methyl)-2-chloro-5-((5-cyanopyridin-3-yl)methoxy)phenoxy)methyl)-2-chloro-2′-methyl-[1,1′-biphenyl]-3-yl)oxy)propyl)amino)-3-hydroxy-2-methylpropanoic Acid] | 0.21 to 10 nM |
| Cc1c(COc2cc(OCc3cncc(C#N)c3)c(CN[C@](C)(CO)C(=O)O)cc2Cl)cccc1-c1cccc(OCCCN(C)C[C@H](O)CO)c1Cl [Example 2024, (R)-2-((5-chloro-4-((2′-chloro-3′-(3-(((S)-2,3-dihydroxypropyl)(methyl)amino)propoxy)-2-methyl-[1,1′-biphenyl]-3-yl)methoxy)-2-((5-cyanopyridin-3-yl)methoxy)benzyl)amino)-3-hydroxy-2-methylpropanoic Acid] | 0.21 to 10 nM |
| Cc1c(COc2cc(OCc3cncc(C#N)c3)c(CO)cc2Cl)cccc1-c1cccc(OCCCN(C)C[C@H](O)CO)c1Cl [Example 2025, (S)-5-((4-chloro-5-((2′-chloro-3′-(3-((2,3-dihydroxypropyl)(methyl)amino)propoxy)-2-methyl-[1,1′-biphenyl]-3-yl)methoxy)-2-(hydroxymethyl)phenoxy)methyl)nicotinonitrile] | 0.21 to 10 nM |
| COC(=O)C1CCN(CCCOc2cccc(-c3cccc(COc4cc(OCc5cncc(C#N)c5)c(CNC[C@H](O)CO)cc4Cl)c3C)c2Cl)CC1 [Example 2027, (S)-methyl 1-(3-((2-chloro-3′-((2-chloro-5-((5-cyanopyridin-3-yl)methoxy)-4-(((2,3-dihydroxypropyl)amino)methyl)phenoxy)methyl)-2′-methyl-[1,1′-biphenyl]-3-yl)oxy)propyl)piperidine-4-carboxylate] | 0.21 to 10 nM |
| Cc1c(COc2cc(OCc3cncc(C#N)c3)c(CNC[C@H](O)CO)cc2Cl)cccc1-c1cccc(OCCCN2CC(N(C)C)C2)c1Cl [Example 2028, (S)-5-((4-chloro-5-((2′-chloro-3′-(3-(3-(dimethylamino)azetidin-1-yl)propoxy)-2-methyl-[1,1′-biphenyl]-3-yl)methoxy)-2-(((2,3-dihydroxypropyl)amino)methyl)phenoxy)methyl)nicotinonitrile] | 0.21 to 10 nM |
| Cc1c(COc2cc(OCc3cncc(C#N)c3)c(CNC[C@H](O)CO)cc2Cl)cccc1-c1cccc(OCCCN(C)C[C@H](O)CO)c1Cl [Example 2029, 5-((4-chloro-5-((2′-chloro-3′-(3-(((S)-2,3-dihydroxypropyl)(methyl)amino)propoxy)-2-methyl-[1,1′-biphenyl]-3-yl)methoxy)-2-((((S)-2,3-dihydroxypropyl)amino)methyl)phenoxy)methyl)nicotinonitrile] | 0.21 to 10 nM |
| Cc1c(COc2cc(OCc3cncc(C#N)c3)c(CNC[C@H](O)CO)cc2Cl)cccc1-c1cccc(OCCCN2CC[C@H](O)[C@@H](O)C2)c1Cl [Example 2030, 5-((4-chloro-5-((2′-chloro-3′-(3-((3S,4S)-3,4-dihydroxypiperidin-1-yl)propoxy)-2-methyl-[1,1′-biphenyl]-3-yl)methoxy)-2-((((S)-2,3-dihydroxypropyl)amino)methyl)phenoxy)methyl)nicotinonitrile] | 0.21 to 10 nM |
| Cc1c(COc2cc(OCc3cncc(C#N)c3)c(CNC[C@H](O)CO)cc2Cl)cccc1-c1cccc(OCCCN2CC[C@H](CO)[C@H](O)C2)c1Cl [Example 2031, 5-((4-chloro-5-((2′-chloro-3′-(3-((3 S,4R)-3-hydroxy-4-(hydroxymethyl)piperidin-1-yl)propoxy)-2-methyl-[1,1′-biphenyl]-3-yl)methoxy)-2-((((S)-2,3-dihydroxypropyl)amino)methyl)phenoxy)methyl)nicotinonitrile] | 0.21 to 10 nM |
| Cc1c(COc2cc(OCc3cncc(C#N)c3)c(CNC[C@H](O)CO)cc2Cl)cccc1-c1cccc(OCCCN(C)CCC(N)=O)c1Cl [Example 2032, (S)-3-((3-((2-chloro-3′-((2-chloro-5-((5-cyanopyridin-3-yl)methoxy)-4-(((2,3-dihydroxypropyl)amino)methyl)phenoxy)methyl)-2′-methyl-[1,1′-biphenyl]-3-yl)oxy)propyl)(methyl)amino)propanamide] | 0.21 to 10 nM |
| N#Cc1cncc(COc2cc(OCc3cccc(-c4cccc(OCCCNC[C@H](O)CO)c4Cl)c3Cl)c(Cl)cc2CNC[C@H](O)CO)c1 [Example 2033, 5-((4-chloro-5-((2,2′-dichloro-3′-(3-(((S)-2,3-dihydroxypropyl)amino)propoxy)-[1,1′-biphenyl]-3-yl)methoxy)-2-((((S)-2,3-dihydroxypropyl)amino)methyl)phenoxy)methyl)nicotinonitrile] | 0.21 to 10 nM |
| N#Cc1cncc(COc2cc(OCc3cccc(-c4cccc(OCCCN5CC[C@@H](O)C5)c4Cl)c3Cl)c(Cl)cc2CNC[C@H](O)CO)c1 [Example 2034, 5-((4-chloro-5-((2,2′-dichloro-3′-(3-((R)-3-hydroxypyrrolidin-1-yl)propoxy)-[1,1′-biphenyl]-3-yl)methoxy)-2-((((S)-2,3-dihydroxypropyl)amino)methyl)phenoxy)methyl)nicotinonitrile] | 0.21 to 10 nM |
| Cc1c(COc2cc(OCc3cncc(C#N)c3)c(CNC(CO)CO)cc2Cl)cccc1-c1cccc(OCCCN2CC[C@@H](O)C2)c1Cl [Example 2035, (R)-5-((4-chloro-5-((2′-chloro-3′-(3-(3-hydroxypyrrolidin-1-yl)propoxy)-2-methyl-[1,1′-biphenyl]-3-yl)methoxy)-2-(((1,3-dihydroxypropan-2-yl)amino)methyl)phenoxy)methyl)nicotinonitrile] | 0.21 to 10 nM |
| Cc1c(COc2cc(OCc3cncc(C#N)c3)c(CNC(CO)CO)cc2Cl)cccc1-c1cccc(OCCCNC[C@H](O)CO)c1Cl [Example 2036, (S)-5-((4-chloro-5-((2′-chloro-3′-(3-((2,3-dihydroxypropyl)amino)propoxy)-2-methyl-[1,1′-biphenyl]-3-yl)methoxy)-2-(((1,3-dihydroxypropan-2-yl)amino)methyl)phenoxy)methyl)nicotinonitrile] | 0.21 to 10 nM |
| Cc1c(COc2cc(OCc3cncc(C#N)c3)c(CNC(CO)CO)cc2Cl)cccc1-c1cccc(OCCCNCCc2cccnc2)c1Cl [Example 2037, 5-((4-chloro-5-((2′-chloro-2-methyl-3′-(3-((2-(pyridin-3-yl)ethyl)amino)propoxy)-[1,1′-biphenyl]-3-yl)methoxy)-2-(((1,3-dihydroxypropan-2-yl)amino)methyl)phenoxy)methyl)nicotinonitrile] | 0.21 to 10 nM |
| Cc1c(COc2cc(OCc3cncc(C#N)c3)c(CN[C@](C)(CO)C(=O)O)cc2Cl)cccc1-c1cccc(OCCCNC(CO)CO)c1Cl [Example 2038, (R)-2-((5-chloro-4-((2′-chloro-3′-(3-((1,3-dihydroxypropan-2-yl)amino)propoxy)-2-methyl-[1,1′-biphenyl]-3-yl)methoxy)-2-((5-cyanopyridin-3-yl)methoxy)benzyl)amino)-3-hydroxy-2-methylpropanoic Acid] | 0.21 to 10 nM |
| Cc1c(COc2cc(OCc3cncc(C#N)c3)c(CO)cc2Cl)cccc1-c1cccc(OCCCNC(CO)CO)c1Cl [Example 2039, 5-((4-chloro-5-((2′-chloro-3′-(3-((1,3-dihydroxypropan-2-yl)amino)propoxy)-2-methyl-[1,1′-biphenyl]-3-yl)methoxy)-2-(hydroxymethyl)phenoxy)methyl)nicotinonitrile] | 0.21 to 10 nM |
| Cc1c(COc2cc(OCc3cncc(C#N)c3)c(CN[C@](C)(CO)C(=O)O)cc2Cl)cccc1-c1cccc(OCCCNC(CO)(CO)CO)c1Cl [Example 2040, (R)-2-((5-chloro-4-((2′-chloro-3′-(3-((1,3-dihydroxy-2-(hydroxymethyl)propan-2-yl)amino)propoxy)-2-methyl-[1,1′-biphenyl]-3-yl)methoxy)-2-((5-cyanopyridin-3-yl)methoxy)benzyl)amino)-3-hydroxy-2-methylpropanoic Acid] | 0.21 to 10 nM |
| Cc1c(COc2cc(OCc3cncc(C#N)c3)c(CO)cc2Cl)cccc1-c1cccc(OCCCNC(CO)(CO)CO)c1Cl [Example 2041, 5-((4-chloro-5-((2′-chloro-3′-(3-((1,3-dihydroxy-2-(hydroxymethyl)propan-2-yl)amino)propoxy)-2-methyl-[1,1′-biphenyl]-3-yl)methoxy)-2-(hydroxymethyl)phenoxy)methyl)nicotinonitrile] | 10 to 100 nM |
| Cc1c(COc2cc(OCc3cncc(C#N)c3)c(CNC(CO)CO)cc2Cl)cccc1-c1cccc(OCCCNC(CO)CO)c1Cl [Example 2042, 5-((4-chloro-5-((2′-chloro-3′-(3-((1,3-dihydroxypropan-2-yl)amino)propoxy)-2-methyl-[1,1′-biphenyl]-3-yl)methoxy)-2-(((1,3-dihydroxypropan-2-yl)amino)methyl)phenoxy)methyl)nicotinonitrile] | 0.21 to 10 nM |
